# Measurements published in patent US20160137982A1, “P38 MAPK INHIBITOR-CONTAINING MEDIUM AND METHOD FOR OSTEOGENIC DIFFERENTIATION” (TAMPEREEN YLIOPISTO, priority 2013, published 2016).
# How the values were obtained:
# [1] = system: human adipose stem cells (hASCs); assay: Quantitative Alizarin Red mineralization assay of hASCs; type: cell-based; conditions: for peak concentration (Alizarin Red mineralization): 2 or 5 μM tested
# Experimental: (§1) The study was conducted in accordance with the ethics committee of the Pirkanmaa Hospital District, Tampere, Finland (R03058). ASCs were isolated from subcutaneous adipose tissue samples obtained with written informed consent from 4 female donors (age, 44±7 years) undergoing elective surgical procedures in the Department of Plastic Surgery, Tampere University Hospital, Tampere, Finland. Isolation of hASCs from adipose tissue samples was carried out by using a mechanical and enzymatic method. The adipose tissue was minced manually into small fragments and digested with collagenase NB 6 GMP Grade (SERVA Electrophoresis GmbH, Heidelberg, Germany) in a water bath at 37° C. under shaking conditions. The digested tissue was centrifuged and filtered in sequential steps through a 100-μm poresize filter to separate the ASCs from the surrounding tissue. Cells were expanded in T75 flasks and passaged after reaching 80% confluency. Expansion was done in DMEM/F-12 1:1 (Life Technologies, Gibco, Carlsbad, Calif., USA) supplemented with 1% l-analyl-l-glutamine (GlutaMAX I; Life Technologies, Gibco), 1% antibiotics (p/s; 100 U/ml penicillin, 0.1 mg/ml streptomycin; Lonza, BioWittaker, Verviers, Belgium) and 10% HS (PAA Laboratories). ASCs were detached by using TrypLE Select (LifeTechnologies, Gibco). Cell surface marker profile (FIG. 1) was analyzed using flow cytometry (FACSAria; BD Biosciences, Erembodegem, Belgium) as described in Patrikoski et al (2013).
# FIG. 3 represents quantitated Alizarin Red mineralization analysis of ASCs in basal medium, osteogenic medium, with and without SB inhibitor (2 μM) in time point 21 days.
# To analyze how p38MAPK inhibitors affect the progression of osteogenic differentiation, Alizarin Red mineralization assay was performed both in BM and OM conditions. In both culture conditions, SB202190 inhibitor peaked at the concentration of 2 μM, but in OM also 5 μM was functional (FIG. 4C).
# (§2) In the above experiments, the basal medium used was DMEM/F12+5% HSPaa serum. Said p38 MAP kinase inhibitor SB 202190 was from SigmaAldrich, while JX401 was from Calbiochem. Osteogenic medium representing the state of the art, was a base medium supplemented with L-ascorbic acid-2phosphate (AsAP), β-glycerolphosphate, and dexamethasone.
# [2] = system: human adipose stem cells (hASCs); assay: Quantitative alkaline phosphatase (ALP) activity of hASCs, normalized to DNA, as early osteogenic marker; type: cell-based
# Experimental: as §1
# The effect obtainable with the present medium and method was studied experimentally. The differentiation into osteogenic cells was analysed following alkaline phosphatase (ALP) as early osteogenic marker and mineralization as a marker for advanced osteogenic process. FIG. 2 illustrates protein expression of alkaline phosphatase (ALP) analysis in various media. Results have been normalized to the amount of DNA. BM denotes basal medium, SB a p38 MAP kinase inhibitor SB 202190 and OM an osteogenic medium. In FIG. 2A these differentiation media results (BM+SB and OM) were compared against BM as a control. In FIG. 2B and 2C results from two cell lines from different patients were analyzed in two time points (after 7 and 14 days) to show the independence on the source (patient-lines) of the present medium and inter-patient predictability in that sense. In these experiments, SB was used in a concentration of 2 μM.
# In further experiments, the effect of a concentration gradient of two different p38 MAPK inhibitors, i.e. SB 202190 and JX401, on osteogenic differentiation of hASCs was analysed. First, the effect of SB202190 inhibitor in a concentration range of 2 to 10 μM on hASCs was studied in BM culture conditions. […] In this case, the analysis was performed both in BM and osteogenic medium (OM).
# as §2
Structure (SMILES),"Alizarin Red mineralization with and without inhibitor ([1]; 2 μM, day 21, patient cell line 41/12 (FIG. 3))","Alizarin Red mineralization ([1]; 5 μM in OM, day 14, patient cell line 11/13 (FIG. 4C))","peak concentration (Alizarin Red mineralization) ([1]; in BM, day 14, patient cell line 11/13 (FIG. 4C)) [µM]","peak concentration (Alizarin Red mineralization) ([1]; in OM, day 14, patient cell line 11/13 (FIG. 4C)) [µM]","ALP activity of hASCs ([2]; 2 μM in BM, day 14, patient cell line 1/13 (FIG. 4A))",osteogenic differentiation (ALP) in basal medium compared with osteogenic medium ([2]; 2 μM inhibitor in BM vs OM),"detection of alkaline phosphatase marker / differentiation across patient cell lines ([2]; 2 μM inhibitor, days 7 and 14, different patient cell lines)","ALP activity of hASCs ([2]; 5 μM in BM, day 14, patient cell line 1/13 (FIG. 4A))","ALP activity of hASCs ([2]; 10 μM in BM, day 14, patient cell line 1/13 (FIG. 4A))","ALP activity of hASCs ([2]; 2 μM in BM, days 7 and 14, patient cell line 15/12 (FIG. 4B))","functional concentration peak (ALP activity) ([2]; in BM, 2/5/10 μM tested, days 7 and 14, patient cell line 15/12 (FIG. 4B)) [µM]","most effective concentration (ALP activity) ([2]; in OM, 2/5/10 μM tested, days 7 and 14, patient cell line 15/12 (FIG. 4B)) [µM]"
"Oc1ccc(-c2nc(-c3ccc(F)cc3)c(-c3ccncc3)[nH]2)cc1 [SB202190, 4-(4-Fluorophenyl)-2-(4-hydroxyphenyl)-5-(4-pyridyl)-1H-imidazole]",enhancer of advanced processes of osteogenesis,functional,2,2,clearly enhanced,almost equal level as with use of osteogenic medium,detected in every patient cell line,clearly enhanced,diminished compared to the other two concentrations,–,–,–
"COc1cc(SC)ccc1C(=O)N1CCC(Cc2ccccc2)CC1 [JX401, 1-[2-Methoxy-4-(methylthio)benzoyl]-4-benzylpiperidine]",–,–,–,–,–,–,–,–,–,effective as compared to the highest concentration,5,2
